Measured values: the supplement of paper PMC8741786
Values after ≈ are worked out from the molar mass of the structure shown.

Tests used:
Assay in all cases: minimum inhibitory concentration (ETEST)
Neisseria mucosa/macacae = tested on: Neisseria mucosa/macacae
Method: (§1)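 Oropharyngeal Neisseria isolates from MSM and employees in Belgium were identified to species by MALDI-TOF MS. MICs of azithromycin, ceftriaxone and ciprofloxacin were determined by ETEST on GC agar after 24 h at 36.5 °C and 5-7% CO2, in mg/L. Values beyond the strip range are reported as >256 (azithromycin) or <0.016 (ceftriaxone); isolates that did not grow are NA.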

Neisseria meningitidis = tested on: Neisseria meningitidis
Method: as §1

Neisseria lactamica = conditions: population: general population, antibiotic use in previous 6 months: No
Method: as §1

Neisseria bacilliformis = conditions: isolate id (sample isolate): Co000780_5; population: general population; antibiotic use in previous 6 months: No
Method: as §1

O=C(O)c1cn(C2CC2)c2cc(N3CCNCC3)c(F)cc2c1=O [ciprofloxacin]
Conditions | minimum inhibitory concentration [ng/mL]
Neisseria meningitidis, isolate id (sample isolate): 19040471_1, population: MSM, antibiotic use in previous 6 months: No | 3 (≈ 0.00905 µM)
Neisseria meningitidis, isolate id (sample isolate): 19040855_1, population: MSM, antibiotic use in previous 6 months: No | 4 (≈ 0.0121 µM)
Neisseria meningitidis, isolate id (sample isolate): 19040874_2, population: MSM, antibiotic use in previous 6 months: No | 4 (≈ 0.0121 µM)
Neisseria meningitidis, isolate id (sample isolate): 19040900_2, population: MSM, antibiotic use in previous 6 months: No | 4 (≈ 0.0121 µM)
Neisseria meningitidis, isolate id (sample isolate): 19042150_2, population: MSM, antibiotic use in previous 6 months: Yes | 2 (≈ 0.00604 µM)
Neisseria meningitidis, isolate id (sample isolate): 19042756_3, population: MSM, antibiotic use in previous 6 months: Yes | 8 (≈ 0.0241 µM)
Neisseria meningitidis, isolate id (sample isolate): 19043201_1, population: MSM, antibiotic use in previous 6 months: No | 3 (≈ 0.00905 µM)
Neisseria meningitidis, isolate id (sample isolate): 19043201_2, population: MSM, antibiotic use in previous 6 months: No | 3 (≈ 0.00905 µM)
Neisseria meningitidis, isolate id (sample isolate): 19043274_1, population: MSM, antibiotic use in previous 6 months: Yes | 4 (≈ 0.0121 µM)
Neisseria meningitidis, isolate id (sample isolate): 19043274_2, population: MSM, antibiotic use in previous 6 months: Yes | 4 (≈ 0.0121 µM)
Neisseria meningitidis, isolate id (sample isolate): 19051853_1, population: MSM, antibiotic use in previous 6 months: No | 4 (≈ 0.0121 µM)
Neisseria meningitidis, isolate id (sample isolate): 19052394_3, population: MSM, antibiotic use in previous 6 months: Yes | 2 (≈ 0.00604 µM)
Neisseria meningitidis, isolate id (sample isolate): 19052434_1, population: MSM, antibiotic use in previous 6 months: Yes | 6 (≈ 0.0181 µM)
Neisseria meningitidis, isolate id (sample isolate): 19060069_1, population: MSM, antibiotic use in previous 6 months: Yes | 6 (≈ 0.0181 µM)
Neisseria meningitidis, isolate id (sample isolate): 19060069_2, population: MSM, antibiotic use in previous 6 months: Yes | 4 (≈ 0.0121 µM)
Neisseria meningitidis, isolate id (sample isolate): 19060089_2, population: MSM, antibiotic use in previous 6 months: Yes | 2 (≈ 0.00604 µM)
Neisseria meningitidis, isolate id (sample isolate): 19061666_1, population: MSM, antibiotic use in previous 6 months: Yes | 64 (≈ 0.193 µM)
Neisseria meningitidis, isolate id (sample isolate): 19062990_1, population: MSM, antibiotic use in previous 6 months: Yes | 4 (≈ 0.0121 µM)
Neisseria meningitidis, isolate id (sample isolate): 19070019_2, population: MSM, antibiotic use in previous 6 months: No | 3 (≈ 0.00905 µM)
Neisseria meningitidis, isolate id (sample isolate): 19070019_4, population: MSM, antibiotic use in previous 6 months: No | 3 (≈ 0.00905 µM)
Neisseria meningitidis, isolate id (sample isolate): 19070047_1, population: MSM, antibiotic use in previous 6 months: No | 6 (≈ 0.0181 µM)
Neisseria meningitidis, isolate id (sample isolate): 19082621_2, population: MSM, antibiotic use in previous 6 months: No | 4 (≈ 0.0121 µM)
Neisseria meningitidis, isolate id (sample isolate): 19091461_1, population: MSM, antibiotic use in previous 6 months: No | 8 (≈ 0.0241 µM)
Neisseria meningitidis, isolate id (sample isolate): 19091461_2, population: MSM, antibiotic use in previous 6 months: No | 8 (≈ 0.0241 µM)
Neisseria meningitidis, isolate id (sample isolate): 19091973_1, population: MSM, antibiotic use in previous 6 months: No | 3 (≈ 0.00905 µM)
Neisseria meningitidis, isolate id (sample isolate): 19092429_3, population: MSM, antibiotic use in previous 6 months: No | 3 (≈ 0.00905 µM)
Neisseria meningitidis, isolate id (sample isolate): 19103457_1, population: MSM, antibiotic use in previous 6 months: No | 3 (≈ 0.00905 µM)
Neisseria meningitidis, isolate id (sample isolate): 19103457_4, population: MSM, antibiotic use in previous 6 months: No | 3 (≈ 0.00905 µM)
Neisseria meningitidis, isolate id (sample isolate): 19110394_1, population: MSM, antibiotic use in previous 6 months: No | 3 (≈ 0.00905 µM)
Neisseria meningitidis, isolate id (sample isolate): 19113049_3, population: MSM, antibiotic use in previous 6 months: No | 4 (≈ 0.0121 µM)
Neisseria meningitidis, isolate id (sample isolate): 19113049_6, population: MSM, antibiotic use in previous 6 months: No | 3 (≈ 0.00905 µM)
Neisseria meningitidis, isolate id (sample isolate): Co000765_1, population: general population, antibiotic use in previous 6 months: No | 4 (≈ 0.0121 µM)
Neisseria meningitidis, isolate id (sample isolate): Co000790_1, population: general population, antibiotic use in previous 6 months: No | 125 (≈ 0.377 µM)
Neisseria meningitidis, isolate id (sample isolate): Co000790_3, population: general population, antibiotic use in previous 6 months: No | 125 (≈ 0.377 µM)
Neisseria mucosa/macacae, isolate id (sample isolate): 19041762_2, population: MSM, antibiotic use in previous 6 months: Yes | 16 (≈ 0.0483 µM)
Neisseria mucosa/macacae, isolate id (sample isolate): 19051904_1, population: MSM, antibiotic use in previous 6 months: Yes | 250 (≈ 0.754 µM)
Neisseria mucosa/macacae, isolate id (sample isolate): 19052394_2, population: MSM, antibiotic use in previous 6 months: Yes | 12 (≈ 0.0362 µM)
Neisseria mucosa/macacae, isolate id (sample isolate): 19062968_1, population: MSM, antibiotic use in previous 6 months: Yes | 6000 (≈ 18.1 µM)
Neisseria mucosa/macacae, isolate id (sample isolate): 19081774_2, population: MSM, antibiotic use in previous 6 months: No | 16 (≈ 0.0483 µM)
Neisseria mucosa/macacae, isolate id (sample isolate): 19111422_4, population: MSM, antibiotic use in previous 6 months: No | 16 (≈ 0.0483 µM)
Neisseria mucosa/macacae, isolate id (sample isolate): 19111422_7, population: MSM, antibiotic use in previous 6 months: No | 16 (≈ 0.0483 µM)
Neisseria mucosa/macacae, isolate id (sample isolate): Co000770_5, population: general population, antibiotic use in previous 6 months: No | 23 (≈ 0.0694 µM)
Neisseria mucosa/macacae, isolate id (sample isolate): Co000771_4, population: general population, antibiotic use in previous 6 months: No | 16 (≈ 0.0483 µM)
Neisseria mucosa/macacae, isolate id (sample isolate): Co000772_3, population: general population, antibiotic use in previous 6 months: No | 6 (≈ 0.0181 µM)
Neisseria mucosa/macacae, isolate id (sample isolate): Co000773_3, population: general population, antibiotic use in previous 6 months: No | 6 (≈ 0.0181 µM)
Neisseria mucosa/macacae, isolate id (sample isolate): Co000779_1, population: general population, antibiotic use in previous 6 months: No | 32 (≈ 0.0966 µM)
Neisseria mucosa/macacae, isolate id (sample isolate): Co000783_3, population: general population, antibiotic use in previous 6 months: No | 12 (≈ 0.0362 µM)
Neisseria mucosa/macacae, isolate id (sample isolate): Co000783_6, population: general population, antibiotic use in previous 6 months: No | 23 (≈ 0.0694 µM)
Neisseria mucosa/macacae, isolate id (sample isolate): Co000787_3, population: general population, antibiotic use in previous 6 months: No | 64 (≈ 0.193 µM)
Neisseria mucosa/macacae, isolate id (sample isolate): Co000788_1, population: general population, antibiotic use in previous 6 months: No | 12 (≈ 0.0362 µM)
Neisseria mucosa/macacae, isolate id (sample isolate): Co000788_4, population: general population, antibiotic use in previous 6 months: No | 12 (≈ 0.0362 µM)

Neisseria lactamica
Conditions | minimum inhibitory concentration [ng/mL]
isolate id (sample isolate): Co000761_1 | 190 (≈ 0.573 µM)
isolate id (sample isolate): Co000771_1 | 64 (≈ 0.193 µM)

Conditions | minimum inhibitory concentration [ng/mL]
Neisseria bacilliformis | 125 (≈ 0.377 µM)
